Results published in patent publication US20040156869A1, “2-substituted quinazolin-4-ylamine analogues” (Neurogen Corporation, priority 2002, published 2004).

What follows are molecules tested against human capsaicin receptor (VR1) (Homo sapiens, UniProt Q8NER1) (assay: Capsaicin receptor binding assay ([3H]RTX competition, VR1-transfected HEK293 membranes)). Details: not given.
human capsaicin receptor (VR1), sequence (Q8NER1 whole entry): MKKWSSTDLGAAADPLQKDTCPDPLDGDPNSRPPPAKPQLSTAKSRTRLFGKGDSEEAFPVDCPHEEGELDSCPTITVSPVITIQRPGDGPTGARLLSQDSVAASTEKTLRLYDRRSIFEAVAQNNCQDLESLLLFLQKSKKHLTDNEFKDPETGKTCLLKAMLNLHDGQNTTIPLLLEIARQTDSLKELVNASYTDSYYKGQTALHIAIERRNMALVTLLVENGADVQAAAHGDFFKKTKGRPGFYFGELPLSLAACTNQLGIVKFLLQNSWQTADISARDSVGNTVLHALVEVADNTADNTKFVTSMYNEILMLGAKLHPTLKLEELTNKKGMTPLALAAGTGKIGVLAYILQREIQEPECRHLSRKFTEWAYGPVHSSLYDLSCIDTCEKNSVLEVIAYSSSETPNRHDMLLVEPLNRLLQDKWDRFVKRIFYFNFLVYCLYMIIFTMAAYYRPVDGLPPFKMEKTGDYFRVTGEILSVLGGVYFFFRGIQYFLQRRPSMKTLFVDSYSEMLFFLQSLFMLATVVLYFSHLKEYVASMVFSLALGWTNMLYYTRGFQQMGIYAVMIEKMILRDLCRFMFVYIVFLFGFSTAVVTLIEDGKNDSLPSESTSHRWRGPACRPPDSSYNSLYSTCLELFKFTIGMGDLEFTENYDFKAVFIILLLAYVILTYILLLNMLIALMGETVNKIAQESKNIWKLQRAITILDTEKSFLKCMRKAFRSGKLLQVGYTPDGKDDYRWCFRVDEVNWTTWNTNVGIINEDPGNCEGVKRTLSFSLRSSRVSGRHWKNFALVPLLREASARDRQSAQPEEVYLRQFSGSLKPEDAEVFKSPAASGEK

Ki, < 1000 nM:
COCc1nc(Nc2ccc(S(=O)(=O)C(F)(F)F)cc2)c2ccc(-c3ncccc3C(F)(F)F)nc2n1 [Compound 113, [2-Methoxymethyl-7-(3-trifluoromethyl-pyridin-2-yl)-pyrido[2,3-d]pyrimidin-4-yl]-(4-trifluoromethanesulfonyl-phenyl)-amine]
CC(C)c1ccc(Nc2nc(CN3C[C@H](C)O[C@@H](C)C3)nc3cc(-c4ncccc4C(F)(F)F)ccc23)cc1 [Compound 640, (S,S)-[2-(2,6-Dimethyl-morpholin-4-ylmethyl)-7-(3-trifluoromethyl-pyridin-2-yl)-quinazolin-4-yl]-(4-isopropyl-phenyl)-amine]
O=S(=O)(c1ccc(Nc2nc(CN3CCOCC3)nc3cc(-c4ncccc4C(F)(F)F)ccc23)cc1)C(F)(F)F [Compound 580, [2-Morpholin-4-ylmethyl-7-(3-trifluoromethyl-pyridin-2-yl)-quinazolin-4-yl]-(4-trifluoromethanesulfonyl-phenyl)-amine]
C=CCN(C)C(=O)c1nc(Nc2ccc(C(F)(F)F)cc2)c2ccc(-c3ncccc3C(F)(F)F)nc2n1 [Compound 464, 4-(4-Trifluoromethyl-phenylamino)-7-(3-trifluoromethyl-pyridin-2-yl)-pyrido[2,3-d]pyrimidine-2-carboxyiic acid allyl-methyl-amide]
CCN1CCN(Cc2nc(Nc3ccc(C(F)(F)F)cc3)c3ccc(-c4ncccc4C(F)(F)F)cc3n2)CC1 [Compound 628, [2-(4-Ethyl-piperazin-1-ylmethyl)-7-(3-trifluoromethyl-pyridin-2-yl)-quinazolin-4-yl]-(4-trifluoromethyl-phenyl)-amine]
CN(C)CCCN1CCN(Cc2nc(Nc3ccc(C(F)(F)F)cc3)c3ccc(-c4ncccc4C(F)(F)F)cc3n2)CC1 [Compound 519, [2-[4-(3-Dimethylamino-propyl)-piperazin-1-ylmethyl]-7-(3-trifluoromethyl-pyridin-2-yl)-quinazolin-4-yl]-(4-trifluoromethyl-phenyl)-amine]
CCN(CC)CCNC(=O)c1nc(Nc2ccc(C(F)(F)F)cc2)c2ccc(-c3ncccc3C(F)(F)F)nc2n1 [Compound 438, 4-(4-Trifluoromethyl-phenylamino)-7-(3-trifluoromethyl-pyridin-2-yl)-pyrido[2,3-d]pyrimidine-2-carboxylic acid (2-diethylamino-ethyl)-amide]
Cc1cccnc1-c1ccc2c(Nc3ccc(C(F)(F)F)cc3)nc(C(=O)O)nc2n1 [Compound 205, 7-(3-Methyl-pyridin-2-yl)-4-(4-trifluoromethyl-phenylamino)-pyrido[2,3-d]pyrimidine-2-carboxylic acid]
COCc1cc(Nc2ccc(C(F)(F)F)cc2)c2ccc(-c3ncccc3C(F)(F)F)nc2n1 [Compound 297, [2-Methoxymethyl-7-(3-trifluoromethyl-pyridin-2-yl)-[1,8]naphthyridin-4-yl]-(4-trifluoromethyl-phenyl)-amine]
C[C@@H]1CN(Cc2nc(Nc3ccc(Cl)cc3)c3ccc(-c4ncccc4Cl)cc3n2)C[C@@H](C)O1 [Compound 624, (R,R)-(4-Chloro-phenyl)-[7-(3-chloro-pyridin-2-yl)-2-(2,6-dimethyl-morpholin-4-ylmethyl)-quinazolin-4-yl]-amine]
Cc1cccnc1-c1ccc2c(Nc3ccc(C(F)(F)F)cc3)nc(CN3C[C@@H](C)O[C@@H](C)C3)nc2n1 [Compound 738, [2-(2,6-Dimethyl-morpholin-4-ylmethyl)-7-(3-methyl-pyridin-2-yl)-pyrido[2,3-d]pyrimidin-4-yl]-(4-trifluoromethyl-phenyl)-amine (cis)]
Cc1cccnc1-c1ccc2c(Nc3ccc(C(F)(F)F)cc3)nc(CN3CCCC(C)(C)C3)nc2n1 [Compound 746, [2-(3,3-Dimethyl-piperidin-1-ylmethyl)-7-(3-methyl-pyridin-2-yl)-pyrido[2,3-d]pyrimidin-4-yl]-(4-trifluoromethyl-phenyl)-amine]
Cc1cccnc1-c1ccc2c(Nc3ccc(C(F)(F)F)cc3)nc(CN3CC[C@H](CO)C3)nc2c1 [Compound 734, (S)-{1-[7-(3-Methyl-pyridin-2-yl)-4-(4-trifluoromethyl-phenylamino)-quinazolin-2-ylmethyl]-pyrrolidin-3-yl}-methanol]
FC(F)(F)c1ccc(Nc2nc(Cn3ccnc3)nc3cc(-c4ncccc4C(F)(F)F)ccc23)cn1 [Compound 579, [2-Imidazol-1-ylmethyl-7-(3-trifluoromethyl-pyridin-2-yl)-quinazolin-4-yl]-(6-trifluoromethyl-pyridin-3-yl)-amine]
CCCN1CCC[C@H]1c1nc(Nc2ccc(C(F)(F)F)cc2)c2ccc(-c3ncccc3C(F)(F)F)cc2n1 [Compound 696, (S)-[2-(1-Propyl-pyrrolidin-2-yl)-7-(3-trifluoromethyl-pyridin-2-yl)-quinazolin-4-yl]-(4-trifluoromethyl-phenyl)-amine]
CC(C)COCc1nc(Nc2ccc(C(F)(F)F)nc2)c2ccc(-c3ncccc3C(F)(F)F)nc2n1 [Compound 165, [2-Isobutoxymethyl-7-(3-trifluoromethyl-pyridin-2-yl)-pyrido[2,3-d]pyrimidin-4-yl]-(6-trifluoromethyl-pyridin-3-yl)-amine]
CC(C)S(=O)(=O)c1ccc(Nc2nc(CN3C[C@H](C)O[C@@H](C)C3)nc3cc(-c4ncccc4C(F)(F)F)ccc23)cc1 [Compound 643, (S,S)-[2-(2,6-Dimethyl-morpholin-4-ylmethyl)-7-(3-trifluoromethyl-pyridin-2-yl)-quinazolin-4-yl]-[4-(propane-2-sulfonyl)-phenyl]-amine]
O=C(c1nc(Nc2ccc(C(F)(F)F)cc2)c2ccc(-c3ncccc3C(F)(F)F)nc2n1)N1CCSCC1 [Compound 463, Thiomorpholin-4-yl-[4-(4-trifluoromethyl-phenylamino)-7-(3-trifluoromethyl-pyridin-2-yl)-pyrido[2,3-d]pyrimidin-2-yl]-methanone]
CCOC(=O)C1CCN(CCc2nc(Nc3ccc(C(F)(F)F)cc3)c3ccc(-c4ncccc4C(F)(F)F)cc3n2)CC1 [Compound 592, 1-{2-[4-(4-Trifluoromethyl-phenylamino)-7-(3-trifluoromethyl-pyridin-2-yl)-quinazolin-2-yl]-ethyl}-piperidine-4-carboxylic acid ethyl ester]
CC(C)COCc1nc(Nc2ccc(C(F)F)cc2)c2ccc(-c3ncccc3C(F)(F)F)nc2n1 [Compound 242, (4-Difluoromethyl-phenyl)-[2-isobutoxymethyl-7-(3-trifluoromethyl-pyridin-2-yl)-pyrido[2,3-d]pyrimidin-4-yl]-amine]
CCN(CC)CCCC(C)NC(=O)c1nc(Nc2ccc(C(F)(F)F)cc2)c2ccc(-c3ncccc3C(F)(F)F)nc2n1 (stereo not shown) [Compound 446, 4-(4-Trifluoromethyl-phenylamino)-7-(3-trifluoromethyl-pyridin-2-yl)-pyrido[2,3-d]pyrimidine-2-carboxylic acid (4-diethylamino-1-methyl-butyl)-amide]
CC(C)COCc1nc(Nc2ccc(C#N)cc2)c2ccc(-c3ncccc3C(F)(F)F)nc2n1 [Compound 272, 4-[2-Isobutoxymethyl-7-(3-trifluoromethyl-pyridin-2-yl)-pyrido[2,3-d]pyrimidin-4-ylamino]-benzonitrile]
CCCCN(C)Cc1nc(Nc2ccc(C(F)(F)F)nc2)c2ccc(-c3ncccc3C(F)(F)F)cc2n1 [Compound 370, [2-[(Butyl-methyl-amino)-methyl]-7-(3-trifluoromethyl-pyridin-2-yl)-quinazolin-4-yl]-(6-trifluoromethyl-pyridin-3-yl)-amine]
CCCN(C)Cc1nc(Nc2ccc(C(F)(F)F)cc2)c2ccc(-c3ncccc3C(F)(F)F)cc2n1 [Compound 330]
CC(C)(C)c1ccc(Nc2nc(CO)nc3cc(-c4ncccc4C(F)(F)F)cnc23)cc1 [Compound 201, [4-(4-tert-Butyl-phenylamino)-7-(3-trifluoromethyl-pyridin-2-yl)-pyrido[3,2-d]pyrimidin-2-yl]-methanol]
FC(F)(F)c1ccc(Nc2nc(CN3CCCC3)nc3cc(-c4ncccc4C(F)(F)F)ccc23)cn1 [Compound 358, [2-Pyrrolidin-1-ylmethyl-7-(3-trifluoromethyl-pyridin-2-yl)-quinazolin-4-yl]-(6-trifluoromethyl-pyridin-3-yl)-amine]
CCCN(C)Cc1nc(Nc2ccc(C(F)(F)F)nc2)c2ccc(-c3ncccc3C(F)(F)F)cc2n1 [Compound 369, [2-[(Methyl-propyl-amino)-methyl]-7-(3-trifluoromethyl-pyridin-2-yl)-quinazolin-4-yl]-(6-trifluoromethyl-pyridin-3-yl)-amine]
CCN(CCc1nc(Nc2ccc(C(F)(F)F)cc2)c2ccc(-c3ncccc3C(F)(F)F)cc2n1)C1CCCCC1 [Compound 426, [2-[(Cyclohexyl-ethyl-amino)-ethyl]-7-(3-trifluoromethyl-pyridin-2-yl)-quinazolin-4-yl]-(4-trifluoromethyl-phenyl)-amine]
CC(C)COCc1nc(Nc2ccc(OC(F)(F)F)cc2)c2ccc(-c3ncccc3Cl)nc2n1 [Compound 180, [7-(3-Chloro-pyridin-2-yl)-2-isobutoxymethyl-pyrido[2,3-d]pyrimidin-4-yl]-(4-trifluoromethoxy-phenyl)-amine]

Same assay, conditions: Table III; capsaicin receptor binding

Ki, < 1000 nM:
[2-(2,6-Dimethyl- morpholin-4-ylmethyl)-7- (3-trifluoromethyl-pyridin- 2-yl)-pyrido[3,2- d]pyrimidin-4-yl]-(4- methanesulfonyl-phenyl)- amine (cis) [Compound 584]
CCCN(CCC)Cc1nc(Nc2ccc(C(F)(F)F)nc2)c2ccc(-c3ncccc3C(F)(F)F)cc2n1 [Compound 557, [2-Dipropylaminomethyl-7-(3-trifluoromethyl-pyridin-2-yl)-quinazolin-4-yl]-(6-trifluoromethyl-pyridin-3-yl)-amine]
